# Data reported in patent publication US5223421A, “Identification of methionine Nα-acetyltransferase” (The General Hospital Corporation, priority 1990, dated 1993).
# Where “and” joins values, the source holds several entries; their conditions need not be identical. Equal entries are not always repeated. Entries after “also recorded” stand apart in the source; their conditions may differ. Where two headings read alike, the source gives them in different places.
# How the values were obtained:
# [1] = test system: methionine N^α -acetyltransferase from S. cerevisiae; format: biochemical, Saccharomyces cerevisiae; details: for effect of ion or salt on M-N^α AT activity: concentration not given; for Enzyme Activity (%): 5 min room temperature, 50 mM HEPES pH 7.4, 1 mM DTT, substrate PAI (N=3)
# Procedure: (§1) N^α -acetyltransferase activity was determined as previously described [Lee et al., J. Biol. Chem. 263:14948-14955 (1988)]. Aliquots of the lysate or chromatographic fractions were added to 1.5 ml Eppendorf tubes containing a reaction mixture of 50 mM HEPES, pH 7.4, 150 mM KCl, 1 mM DTT, 25 μM [^3 H] acetyl coenzyme A (0.5 μCi) and 50 μM synthetic peptide with an adjusted final volume of 100 μl. The assay mixture was incubated at 30° C. for 30 min. The reaction was stopped by adding 17 μl of 0.5M acetic acid and chilled in an ice bath. The reaction samples were filtered through SP membrane discs (Cuno) (previously pre-swollen in 0.5M acetic acid), and then washed three times with 1 ml of 0.5M acetic acid on a Millipore 1225 sampling manifold. The partially dried membranes were placed in scintillation cocktail and counted with a Beckman LS 3801 scintillation counter.
# Yeast methionine acetyltransferase was incubated in the presence of various divalent cations at a room temperature for 5 min in 50 mM HEPES, pH 7.4 containing 1 mM DTT. The enzyme activity was determined under standard assay conditions using PAI (N=3), as described above.
# yeast N^α AT = molecular target: T1, yeast N^α AT (Saccharomyces cerevisiae, UniProt P07347+P12945); assay: Effect of ions and reagents on yeast N^α AT (comparison in the discussion); format: biochemical
# T1 sequence (P12945 2-854 limits assumed): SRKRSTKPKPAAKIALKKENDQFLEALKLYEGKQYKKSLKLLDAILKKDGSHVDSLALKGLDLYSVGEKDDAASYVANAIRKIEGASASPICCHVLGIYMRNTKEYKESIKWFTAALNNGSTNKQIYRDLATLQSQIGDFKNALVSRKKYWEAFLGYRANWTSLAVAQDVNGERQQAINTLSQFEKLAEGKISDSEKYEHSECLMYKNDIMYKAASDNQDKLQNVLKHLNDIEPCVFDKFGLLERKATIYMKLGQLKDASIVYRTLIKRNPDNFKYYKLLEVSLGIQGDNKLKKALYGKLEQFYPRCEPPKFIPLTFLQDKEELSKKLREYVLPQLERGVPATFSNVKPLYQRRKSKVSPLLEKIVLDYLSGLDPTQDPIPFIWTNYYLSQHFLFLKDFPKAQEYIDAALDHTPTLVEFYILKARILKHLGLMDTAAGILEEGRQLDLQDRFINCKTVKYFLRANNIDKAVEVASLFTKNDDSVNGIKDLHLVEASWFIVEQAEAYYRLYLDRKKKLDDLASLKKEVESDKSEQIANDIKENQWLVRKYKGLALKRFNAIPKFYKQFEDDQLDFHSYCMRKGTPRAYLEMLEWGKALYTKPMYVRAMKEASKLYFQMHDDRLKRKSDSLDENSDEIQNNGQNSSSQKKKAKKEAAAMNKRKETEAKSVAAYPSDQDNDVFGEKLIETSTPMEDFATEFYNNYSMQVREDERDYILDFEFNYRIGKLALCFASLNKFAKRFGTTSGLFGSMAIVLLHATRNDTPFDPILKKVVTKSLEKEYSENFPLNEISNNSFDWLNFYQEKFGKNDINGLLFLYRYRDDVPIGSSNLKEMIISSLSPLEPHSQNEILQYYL
# T1 sequence (P07347 1-238): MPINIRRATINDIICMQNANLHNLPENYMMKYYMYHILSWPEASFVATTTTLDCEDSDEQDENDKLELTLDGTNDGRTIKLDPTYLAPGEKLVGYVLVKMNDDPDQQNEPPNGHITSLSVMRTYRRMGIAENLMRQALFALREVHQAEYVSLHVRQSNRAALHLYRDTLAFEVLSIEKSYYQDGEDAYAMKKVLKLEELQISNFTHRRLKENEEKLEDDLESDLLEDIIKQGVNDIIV
# [2] = test system: yeast M-N^α -acetyltransferase; assay: Effect of KCl or NaCl on enzyme activity; format: biochemical, Saccharomyces cerevisiae; details: for reduction in enzyme activity: enzyme assay performed at 0.8M, 800000 µM; for effect on enzyme activity: up to 0.5M in the assay
# Procedure: as §1, with “counter. One unit of activity was defined as the amount of enzyme able to transfer 1 pmol of [^3 H] acetyl group from [^3 H] acetyl coenzyme A to synthetic peptide per min under standard enzyme assay conditions defined above.” for “counter.”
# [3] = test system: methionine N^α -acetyltransferase from S. cerevisiae; assay: Effect of protein modification reagents on enzyme activity; format: biochemical, Saccharomyces cerevisiae
# Procedure: as §1, with “counter. One unit of activity was defined as the amount of enzyme able to transfer 1 pmol of [^3 H] acetyl group from [^3 H] acetyl coenzyme A to synthetic peptide per min under standard enzyme assay conditions defined above.” for “counter.”
# In order to determine the possible catalytic role for different types of amino acid residues in the enzyme, various chemical modifications were carried out (Table 10). Yeast methionine acetyltransferase was incubated with each reagent at 30° C. for 15 min, dialyzed against 50 mM HEPES, pH 7.4, 150 mM, 1 mM DTT at 4° C. for 3 to 4 hr. The enzyme activity was determined under standard assay conditions using PAI (N=3), assayed as described above.
# [4] = molecular target: T2, N^α -acetyltransferase activity of crude yeast lysate, aaa1 mutant strain T3A-a (Saccharomyces cerevisiae, UniProt Q06504); assay: N^α -acetylation of peptide substrates by crude yeast lysate, aaa1 mutant strain; format: biochemical; details: crude lysate of aaa1 mutant strain T3A-a; mean ± SD (N=3-5); normalized to human adrenocorticotropic hormone (1-24); 50 μM peptide
# T2 construct: a crude yeast homogenate from the aaa1 mutant strain; endogenous in cells; host or cells: Saccharomyces cerevisiae strain T3A-a (aaa1), crude lysate
# T2 sequence (Q06504 1-195): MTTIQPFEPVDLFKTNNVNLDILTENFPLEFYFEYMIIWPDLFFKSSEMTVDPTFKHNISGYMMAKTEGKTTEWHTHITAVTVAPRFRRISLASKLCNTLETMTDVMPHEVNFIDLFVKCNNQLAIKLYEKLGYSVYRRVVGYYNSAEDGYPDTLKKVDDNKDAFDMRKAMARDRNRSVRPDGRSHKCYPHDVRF
# T2 sequence (Q12387 1-796 partner): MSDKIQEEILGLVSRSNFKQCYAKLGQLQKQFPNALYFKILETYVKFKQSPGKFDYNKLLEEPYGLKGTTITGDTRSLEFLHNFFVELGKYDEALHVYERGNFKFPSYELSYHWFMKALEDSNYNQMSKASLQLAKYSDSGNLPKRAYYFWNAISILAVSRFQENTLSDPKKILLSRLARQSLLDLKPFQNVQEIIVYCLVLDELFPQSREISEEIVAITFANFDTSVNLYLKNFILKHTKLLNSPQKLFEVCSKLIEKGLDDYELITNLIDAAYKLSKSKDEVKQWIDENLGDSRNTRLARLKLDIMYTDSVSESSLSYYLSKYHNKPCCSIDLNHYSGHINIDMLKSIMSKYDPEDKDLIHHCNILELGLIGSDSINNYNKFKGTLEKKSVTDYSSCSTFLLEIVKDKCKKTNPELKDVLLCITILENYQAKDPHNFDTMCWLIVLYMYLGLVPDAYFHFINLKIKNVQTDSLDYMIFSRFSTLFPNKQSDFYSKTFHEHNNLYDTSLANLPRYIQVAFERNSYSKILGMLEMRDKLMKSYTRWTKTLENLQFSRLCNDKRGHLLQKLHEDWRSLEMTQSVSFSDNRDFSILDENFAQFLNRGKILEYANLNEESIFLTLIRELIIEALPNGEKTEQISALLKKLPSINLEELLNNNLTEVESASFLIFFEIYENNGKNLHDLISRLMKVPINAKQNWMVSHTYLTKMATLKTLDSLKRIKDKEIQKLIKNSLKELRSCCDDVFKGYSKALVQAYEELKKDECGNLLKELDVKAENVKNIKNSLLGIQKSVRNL
# Procedure: as §1, with “counter. One unit of activity was defined as the amount of enzyme able to transfer 1 pmol of [^3 H] acetyl group from [^3 H] acetyl coenzyme A to synthetic peptide per min under standard enzyme assay conditions defined above.” for “counter.”
# (§2) The wild-type (containing endogenous N^α -acetyltransferase activity) and the aaa1 (lacking endogenous N^α -acetyltransferase activity) strains were T3A and T3A-a, respectively (Lee, F-J. S., et al., J. Bacteriol. 171, 5795-5802 (1989)). Human adrenocorticotropic hormone (1-24), yeast alcohol dehydrogenase (1-24), and human superoxide dismutase (1-24) have either serine or alanine as amino-terminal residues, while proteinase A inhibitor 3 has a methionine residue. The synthesis of the peptide substrates, the preparation of the crude yeast homogenate, and the assay of enzyme activity were as previously described by Lee et al. (Lee, F-J. S., et al., J. Biol. Chem. 263:14948 (1988); Kamitani, K., et al., J. Biol. Chem. 264:13188 (1989)). The numbers in parentheses refer to the residue numbers, and the letters in parentheses specify the amino acid sequence. Abbreviations: A (alanine), C (cysteine), D (aspartic acid), E (glutamic acid), F (phenylalanine), G (glycine), H (histidine), I (isoleucine), K (lysine), L (leucine), M (methionine), N (asparagine), P (proline), Q (glutamine), R (arginine), S (serine), T (threonine), V (valine), W (tryptophan). Data are reported as mean activity±SD (N=3-5) and are normalized to the activity of the homogenate towards human adrenocorticotropic hormone (1-24).
# [5] = test system: N^α -acetyltransferase activity of crude yeast lysate, wild-type (AAA1) strain T3A; assay: N^α -acetylation of peptide substrates by crude yeast lysate, wild-type strain; format: biochemical, Saccharomyces cerevisiae; details: crude lysate of wild-type strain T3A; mean ± SD (N=3-5); normalized to human adrenocorticotropic hormone (1-24); 50 μM peptide
# Procedure: as §1, with “counter. One unit of activity was defined as the amount of enzyme able to transfer 1 pmol of [^3 H] acetyl group from [^3 H] acetyl coenzyme A to synthetic peptide per min under standard enzyme assay conditions defined above.” for “counter.”
# as §2
# [6] = reagent 10.0 mM, 30° C. 15 min, then dialyzed, substrate PAI (N=3)
compound,measurement,setting,value
Cl [chloride ion],effect of ion or salt on M-N^α AT activity,[1],neither M-N^α AT nor N^α AT were activated
same,effect of ion on N^α AT activity,yeast N^α AT,neither M-N^α AT nor N^α AT were activated
[Cl-].[Na+] [NaCl],reduction in enzyme activity,[2],50%
same,effect on enzyme activity,[2],did not affect the enzyme activity
OCCS [2-mercaptoethanol],effect of reagent on M-N^α AT activity,[3]; concentration not given,did not affect the enzyme activity
same,effect of reagent on M-N^α AT activity,"[3]; concentration not given, listed as β-mercaptoethanol",inability
same,Enzyme Activity (%),[3]; [6],96%
same,effect of reagent on N^α AT activity,yeast N^α AT,inability
"O=C(O)CI [IAA, iodoacetic acid]",Enzyme Activity (%),[3],102% and 75%
same,effect of reagent on N^α AT activity,yeast N^α AT,inability
ATKAVCVLKGDGPVQGSINFEQKE (ATKAVCVLKGDGPVQGSINFEQKE) [Superoxide dismutase (1-24) (Human)],Activity (%) aaa1,[4],0%
same,Activity (%) AAA1,[5],80 ± 6%
[Cl-].[K+] [KCl],reduction in enzyme activity,[2],50%
same,effect on enzyme activity,[2],did not affect the enzyme activity
O=S(=O)([O-])[O-].[Zn+2] [ZnSO4],effect of ion or salt on M-N^α AT activity,[1]; listed as Zn^2+,pronounced and concentration-dependent inhibition; also recorded: inhibited markedly
same,Enzyme Activity (%),[1]; salt 0.01 mM,95%
same,Enzyme Activity (%),[1]; salt 0.1 mM,52%
same,Enzyme Activity (%),[1]; salt 1 mM,0%
same,effect of ion on N^α AT activity,yeast N^α AT,inhibited markedly
"O=C(O)c1cc[c]([Hg][Cl])cc1 [pCMB, p-chloromercuribenzoate]",effect of reagent on M-N^α AT activity,[3]; 1 mM,without effect
same,effect of reagent on M-N^α AT activity,[3]; 10 mM,partial inactivation
same,effect of reagent on M-N^α AT activity,[3]; concentration not given,inability
same,Enzyme Activity (%),"[3]; reagent 1.0 mM, 30° C. 15 min, then dialyzed, substrate PAI (N=3)",94%
same,Enzyme Activity (%),[3]; [6],25%
same,effect of reagent on N^α AT activity,yeast N^α AT,inability
O=S(=O)([O-])[O-].[Cu+2] [CuSO4],effect of ion or salt on M-N^α AT activity,[1]; listed as Cu^2+,pronounced and concentration-dependent inhibition; also recorded: inhibited markedly
same,Enzyme Activity (%),[1]; salt 0.1 mM,65%
same,Enzyme Activity (%),[1]; salt 1 mM,0%
same,effect of ion on N^α AT activity,yeast N^α AT,inhibited markedly
